# In publication PMC11410249 (PLOS ONE, 2024):
# Key:
# Format in all cases: biochemical
# [1] = target: T1, 5-lipoxygenase (5-LO) (Homo sapiens, UniProt P09917); experiment: LC-MS/MS activity assay in lysate of 5-LO-transfected Expi293F cells, […] arachidonic acid
# T1 construct: gene ALOX5; full-length human 5-LO
# T1 sequence (P09917 1-674): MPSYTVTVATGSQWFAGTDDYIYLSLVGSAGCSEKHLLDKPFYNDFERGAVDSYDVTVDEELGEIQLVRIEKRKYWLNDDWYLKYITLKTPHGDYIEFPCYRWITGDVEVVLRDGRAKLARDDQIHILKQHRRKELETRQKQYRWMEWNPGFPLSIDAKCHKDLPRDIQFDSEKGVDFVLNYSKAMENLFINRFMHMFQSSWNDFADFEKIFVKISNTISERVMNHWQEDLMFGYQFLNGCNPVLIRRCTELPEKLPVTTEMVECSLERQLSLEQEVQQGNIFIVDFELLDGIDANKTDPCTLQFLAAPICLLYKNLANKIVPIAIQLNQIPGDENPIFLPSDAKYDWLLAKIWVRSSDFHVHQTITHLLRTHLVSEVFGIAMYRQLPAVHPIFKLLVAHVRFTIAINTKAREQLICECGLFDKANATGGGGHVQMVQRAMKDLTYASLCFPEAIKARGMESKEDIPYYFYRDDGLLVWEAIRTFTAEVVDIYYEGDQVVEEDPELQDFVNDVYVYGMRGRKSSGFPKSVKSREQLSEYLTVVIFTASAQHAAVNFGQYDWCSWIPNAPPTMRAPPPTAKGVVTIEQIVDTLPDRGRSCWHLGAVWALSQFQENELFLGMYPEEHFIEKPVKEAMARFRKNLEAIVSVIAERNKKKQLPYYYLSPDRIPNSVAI
# [2] = target: T2, cyclooxygenase (COX-2) (Homo sapiens, UniProt P35354); experiment: in vitro enzyme activity assay (product formation by LC-MS/MS)
# T2 construct: gene PTGS2
# T2 sequence (P35354 18-604): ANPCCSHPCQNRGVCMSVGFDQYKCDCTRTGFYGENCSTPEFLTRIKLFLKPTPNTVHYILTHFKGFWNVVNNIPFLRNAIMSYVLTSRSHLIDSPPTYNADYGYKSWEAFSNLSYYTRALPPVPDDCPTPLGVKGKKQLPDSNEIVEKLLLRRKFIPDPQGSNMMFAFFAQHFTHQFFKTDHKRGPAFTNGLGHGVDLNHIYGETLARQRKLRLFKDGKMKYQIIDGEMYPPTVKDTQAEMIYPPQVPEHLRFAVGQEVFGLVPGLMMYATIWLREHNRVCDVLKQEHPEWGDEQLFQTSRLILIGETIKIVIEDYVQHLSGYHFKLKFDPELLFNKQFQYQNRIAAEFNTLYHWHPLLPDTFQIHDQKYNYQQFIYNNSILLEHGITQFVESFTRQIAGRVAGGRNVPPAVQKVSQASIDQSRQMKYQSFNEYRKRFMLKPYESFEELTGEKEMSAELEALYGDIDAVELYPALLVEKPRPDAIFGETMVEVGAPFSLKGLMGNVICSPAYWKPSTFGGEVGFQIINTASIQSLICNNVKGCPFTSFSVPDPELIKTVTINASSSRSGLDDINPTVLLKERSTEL
# [3] = target: T3, 15-lipoxygenase (15-LO) (Homo sapiens, UniProt P16050); experiment: LC-MS/MS enzyme activity assay, […] enzyme, […] arachidonic acid
# T3 construct: gene ALOX15
# T3 sequence (P16050 2-662): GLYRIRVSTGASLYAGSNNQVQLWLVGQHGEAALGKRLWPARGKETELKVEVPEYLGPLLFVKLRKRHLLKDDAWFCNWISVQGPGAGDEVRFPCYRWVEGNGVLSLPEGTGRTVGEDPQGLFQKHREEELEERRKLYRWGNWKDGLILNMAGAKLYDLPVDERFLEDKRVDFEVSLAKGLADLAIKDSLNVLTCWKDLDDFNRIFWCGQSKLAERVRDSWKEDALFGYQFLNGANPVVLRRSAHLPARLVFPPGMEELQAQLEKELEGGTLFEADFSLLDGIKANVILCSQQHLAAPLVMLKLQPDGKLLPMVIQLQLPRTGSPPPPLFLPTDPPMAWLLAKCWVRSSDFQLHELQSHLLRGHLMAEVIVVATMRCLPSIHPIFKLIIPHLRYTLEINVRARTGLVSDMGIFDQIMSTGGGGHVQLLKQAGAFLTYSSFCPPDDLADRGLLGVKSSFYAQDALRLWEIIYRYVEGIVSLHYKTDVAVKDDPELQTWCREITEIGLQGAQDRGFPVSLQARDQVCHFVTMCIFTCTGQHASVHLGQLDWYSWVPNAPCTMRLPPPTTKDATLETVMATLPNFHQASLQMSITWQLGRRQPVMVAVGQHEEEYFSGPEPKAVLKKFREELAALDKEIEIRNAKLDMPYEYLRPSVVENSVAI
# [4] = target: T4, 12-LO (Homo sapiens, UniProt P18054); experiment: as above
# T4 construct: gene ALOX12
# T4 sequence (P18054 1-663): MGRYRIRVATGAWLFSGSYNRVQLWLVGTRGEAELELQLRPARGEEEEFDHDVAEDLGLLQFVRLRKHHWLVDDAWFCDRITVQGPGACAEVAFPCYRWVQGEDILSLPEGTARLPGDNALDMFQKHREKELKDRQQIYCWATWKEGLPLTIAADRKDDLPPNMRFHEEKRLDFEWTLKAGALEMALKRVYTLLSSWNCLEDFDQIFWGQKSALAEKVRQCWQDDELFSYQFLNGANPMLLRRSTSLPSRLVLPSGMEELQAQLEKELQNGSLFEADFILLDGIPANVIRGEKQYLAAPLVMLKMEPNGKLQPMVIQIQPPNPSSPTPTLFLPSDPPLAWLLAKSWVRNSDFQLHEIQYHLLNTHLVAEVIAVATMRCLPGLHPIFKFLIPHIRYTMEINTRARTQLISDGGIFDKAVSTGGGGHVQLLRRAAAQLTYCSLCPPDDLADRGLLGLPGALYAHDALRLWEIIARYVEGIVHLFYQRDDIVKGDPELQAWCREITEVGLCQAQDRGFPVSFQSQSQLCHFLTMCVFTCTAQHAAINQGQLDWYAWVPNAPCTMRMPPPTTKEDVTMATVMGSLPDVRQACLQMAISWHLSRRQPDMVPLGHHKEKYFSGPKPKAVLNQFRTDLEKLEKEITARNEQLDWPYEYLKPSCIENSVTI
substance,measurement,setting,value
PTC-041 hydroquinone,IC50,[1],0.46 µM
same,IC50,[2],9.6 µM
same,IC50,[3],0.95 µM
same,IC50,[4],5.2 µM
